Assay results from paper PMC6865181, “Role of L-Type Amino Acid Transporter 1 (LAT1) for the Selective Cytotoxicity of Sesamol in Human Melanoma Cells” (Molecules, 2019).
Where two headings read alike, the source gives them in different places. Marks after values point to notes of the source that are not given here.

How the values were obtained:
SK-MEL-2 cells [1] = experiment: Time-course of sesamol cellular uptake (distribution) in SK-MEL-2 cells; assay type: in vitro ADME, human
Procedure: (§1) The cells were used for the following experiments.
(§2) The cells were exposed to 1 mM (200 µL) sesamol and incubated at 37 °C at various times (0.5, 1, 3, 5, 10, and 15 min). The media was plated into 96-well plates prior to measuring the extracellular sesamol content by HPLC analysis. […] The sesamol content in 20 µL of cell lysate was quantified using HPLC assay as described in the analytical procedure.
(§3) The cellular uptake of sesamol was determined based on the sesamol content in cells (nmol/mg protein) to medium (nmol/µL) (expressed as C/M ratio, µL/mg protein). The linear regression of the C/M ratio from 0.5 to 3 min was performed (r^2 > 0.90); to give the initial distribution volume (µL/mg protein) from the y-intercept, and the initial uptake clearance (µL/min/mg protein) from the slope.

Vero cells [2] = experiment: Time-course of sesamol cellular uptake (distribution) in Vero cells; assay type: in vitro ADME, African green monkey
Procedure: as §1, §2, §3

SK-MEL-2 cells [3] = experiment: Uptake kinetics of sesamol at 37 °C and 4 °C in SK-MEL-2 cells; conditions: for Pd (sesamol passive diffusion) / Vmax (sesamol uptake) / Km: 1 min; for Km: read-out: Km (sesamol uptake)
Procedure: (§4) SK-MEL-2 and Vero cells were seeded separately into 24-well plates at 2 × 10^5 cells/well for 24 h. The media was removed, and the cells pre-incubated with HBSS pH 7.4 for 10 min. The cells were used for the following experiments.
(§5) The cells were pre-incubated with HBSS pH 7.4 at 37 °C and at 4 °C both for 10 min. The cells were treated with sesamol (200 µL; range, 31.5 to 1,000 μM) and incubated under each condition for another 1 min, to exclude the influence of efflux or metabolism processes as per the previous report. The uptake process at 37 °C represented the total uptake of sesamol in the cells, including both carrier-mediated transport and passive transport; whereas the uptake process at 4 °C represented mainly passive transport.
(§6) The uptake kinetics was fitted using Michaelis-Menten kinetics (non-linear least square kinetics model) (r^2 > 0.90) Equation (1) that allowed estimation of Vmax, Km, and Pd values.
(§7) V = (Vmax × [S])/(Km + [S]) + Pd × [S](1)
(§8) V = uptake velocity at a certain amount of substrate (nmol/min/mg protein)
(§9) Vmax = maximum uptake velocity (nmol/min/mg protein)
(§10) [S] = concentration of sesamol at extracellular compartment (µM)
(§11) Km = concentration of sesamol at half of Vmax (µM)
(§12) Pd = passive lipoidal diffusion uptake rate (µL/min/mg protein)
(§13) The rate to reach total uptake clearance of carrier-mediated transport was obtained from the ratio of Vmax to Km (µL/min/mg protein). The total uptake clearance of the process (µL/min/mg protein) was obtained from (Vmax /Km) + Pd.

Vero cells [4] = experiment: Uptake kinetics of sesamol at 37 °C and 4 °C in Vero cells; conditions: for Pd (sesamol passive diffusion) / Vmax (sesamol uptake): 1 min
Procedure: as §4, §5, §6, §7, §8, §9, §10, §11, §12, §13

LAT1 [5] = target: T1, LAT1 (Homo sapiens, UniProt Q01650); experiment: LAT1 function: competitive uptake of L-dopa in SK-MEL-2 cells; assay type: cell-based; conditions: SK-MEL-2, L-dopa 0.1 mM, 10 min
T1 sequence (Q01650 whole entry): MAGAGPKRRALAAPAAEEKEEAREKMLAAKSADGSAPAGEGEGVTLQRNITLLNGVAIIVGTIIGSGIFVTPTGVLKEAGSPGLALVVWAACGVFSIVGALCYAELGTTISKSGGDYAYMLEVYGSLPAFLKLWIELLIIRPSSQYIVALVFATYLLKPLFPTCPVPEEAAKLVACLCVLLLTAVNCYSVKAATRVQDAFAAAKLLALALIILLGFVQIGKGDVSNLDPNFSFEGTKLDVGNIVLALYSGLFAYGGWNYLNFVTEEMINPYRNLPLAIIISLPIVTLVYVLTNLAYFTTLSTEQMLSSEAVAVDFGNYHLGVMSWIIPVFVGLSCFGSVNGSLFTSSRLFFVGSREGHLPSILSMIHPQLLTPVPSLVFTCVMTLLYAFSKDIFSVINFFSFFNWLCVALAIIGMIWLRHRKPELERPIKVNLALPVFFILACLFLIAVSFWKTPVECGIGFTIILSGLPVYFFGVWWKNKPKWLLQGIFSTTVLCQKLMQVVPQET
T1 sequence (P08195 102-630 partner): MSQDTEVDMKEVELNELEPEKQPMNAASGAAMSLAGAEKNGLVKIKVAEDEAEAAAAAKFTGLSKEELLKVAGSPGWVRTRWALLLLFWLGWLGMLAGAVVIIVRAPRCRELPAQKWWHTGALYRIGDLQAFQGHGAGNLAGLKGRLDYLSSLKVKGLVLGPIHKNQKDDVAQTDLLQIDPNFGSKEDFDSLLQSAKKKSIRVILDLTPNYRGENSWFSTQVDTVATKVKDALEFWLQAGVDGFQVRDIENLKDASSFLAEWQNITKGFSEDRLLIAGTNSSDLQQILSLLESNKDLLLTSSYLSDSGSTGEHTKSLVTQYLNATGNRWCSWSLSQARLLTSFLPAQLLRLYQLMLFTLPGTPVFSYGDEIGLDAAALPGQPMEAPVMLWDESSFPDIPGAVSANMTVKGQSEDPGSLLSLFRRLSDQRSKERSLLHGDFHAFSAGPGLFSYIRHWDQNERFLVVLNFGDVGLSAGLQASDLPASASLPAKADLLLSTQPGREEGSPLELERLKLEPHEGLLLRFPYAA
Procedure: as §4
(§14) Sesamol was also investigated for its affinity to LAT1. […] Competitive uptake was performed for 10 min then the cells were washed twice with ice-cold PBS. The L-dopa was solubilized by 0.1 M HCl and the cell lysate (25 µL) was pipetted for protein determination. […] Intracellular and extracellular L-dopa was quantified by the HPLC assay. The L-dopa uptake was represented as the distribution volume of L-dopa in a cell to media ratio (C/M ratio) as calculated in Section 4.3.1.
The analysis was based on a BDS Hypersil C-18 column, (4.6 × 250 mm, 5 µm packing, Thermo Fisher Scientific, Waltham, MA, USA). The column temperature was set at 30 °C with a flow rate of 0.8 mL/min. The mobile phase for sesamol quantification was 70% methanol in water, vs. 20% methanol in water for L-dopa. […] The validated sesamol quantification conducted using sesamol spiked cell lysate with high selectivity and clear separation from the endogenous cell lysate as previously reported. The % bias and % precision was determined within and between days, each was maintained below 6%.

LAT1 [6] = experiment: LAT1 function: competitive uptake of L-dopa in Vero cells; assay type: cell-based, African green monkey; conditions: L-dopa 0.1 mM, 10 min
Procedure: as §4, §14
(§15) Quantitative analysis of sesamol and L-dopa were performed using a Shimadzu HPLC (LC-2030C-3D) with a UV photodiode array detector (DAD) (Kyoto, Japan). The analysis was based on a BDS Hypersil C-18 column, (4.6 × 250 mm, 5 µm packing, Thermo Fisher Scientific, Waltham, MA, USA). The column temperature was set at 30 °C with a flow rate of 0.8 mL/min. The mobile phase for sesamol quantification was 70% methanol in water, vs. 20% methanol in water for L-dopa. The respective detection wavelength and elution time for sesamol and L-dopa was 297 nm and 280 nm and 4.2 and 4.5 min. The validated sesamol quantification conducted using sesamol spiked cell lysate with high selectivity and clear separation from the endogenous cell lysate as previously reported. The % bias and % precision was determined within and between days, each was maintained below 6%.

LAT1 [7] = target: T1, LAT1; experiment: cell-based; conditions: SK-MEL-2; sesamol 0.1 mM, uptake equilibrium 10 min
Procedure: as §4
(§16) Competitive inhibition of uptake of sesamol was done in both SK-MEL-2 and the Vero cells. […] The cells were washed twice with ice-cold PBS, solubilized in methanol, and centrifuged at 2400× g, at 4 °C for 20 min. The precipitated protein was re-solubilized by 0.1 M NaOH prior to protein determination. The sesamol content was quantified using HPLC assay. The cellular uptake of sesamol was calculated as per the C/M ratio.
as §15

LAT1 [8] = conditions: Vero cells; sesamol 0.1 mM, uptake equilibrium 10 min
Procedure: as §4, §16, §15

SK-MEL-2 cells [9] = experiment: Antiproliferative effect, neutral red uptake assay, SK-MEL-2 cells; assay type: cell-based, human
Procedure: (§17) The SK-MEL-2 and Vero cells (at 5 × 10^4 cells/well) were seeded separately into 96-well plates. After the cells were exposed to the tested compounds (200 µL) for 24 h, neutral red (50 µg/mL) (Sigma-Aldrich, St. Louis, MO, USA) was incorporated into the cells for 2 h. The cells were then washed with ice-cold PBS and lysed using 0.33% HCl in isopropanol. The absorbances of neutral red were measured at 540 nm with a reference wavelength of 660 nm using a UV-microplate reader (Perkin Elmer, Waltham, MA, USA). […] The selective index was calculated from the ratio of the IC50 of Vero and SK-MEL-2 cells.

Vero cells [10] = experiment: Antiproliferative effect, neutral red uptake assay, Vero cells; assay type: cell-based, African green monkey; conditions: Vero cells, 24 h exposure, neutral red; read-out: IC50 (cell viability)
Procedure: as §17

[11] = stated in the introduction without reference; cited from earlier work
[12] = 1 mM sesamol, 37 °C, linear regression 0.5-3 min
[13] = competitor (BCH, L-tyrosine, sesamol 1 mM; L-leucine, L-alanine 2 mM; melphalan 0.05 mM)
[14] = competitor at the concentration printed in the row

SMILES: Oc1ccc2c(c1)OCO2 [Sesamol]
- initial distribution volume (SK-MEL-2 cells [1]; [12]): 6.0 ± 0.4 µL/mg protein
- initial uptake clearance (SK-MEL-2 cells [1]; [12]): 2.6 ± 0.1 µL/min/mg protein
- suppression of sesamol uptake at 4 °C compared to 37 °C (SK-MEL-2 cells [1]; 30 s): 45%
- time at which sesamol uptake reached a steady state (SK-MEL-2 cells [1]; 37 °C): approximately 10 min
- suppression of sesamol uptake at 4 °C compared to 37 °C (SK-MEL-2 cells [1]; 1 min): 61%
- initial distribution volume (Vero cells [2]; [12]): 5.7 ± 0.4 µL/mg protein
- initial uptake clearance (Vero cells [2]; [12]): 1.3 ± 0.2 µL/min/mg protein
- reduction in sesamol distribution volume at 4 °C compared to 37 °C (Vero cells [2]; 30 s): 33%
- time at which sesamol uptake reached a steady state (Vero cells [2]; 37 °C): about 5 min
- reduction in sesamol distribution volume at 4 °C compared to 37 °C (Vero cells [2]; 1 min): 23%
- carrier-mediated uptake clearance in SK-MEL-2 cells relative to Vero cells (SK-MEL-2 cells [3]; 37 °C): 3.4 fold
- Pd (sesamol passive diffusion) (SK-MEL-2 cells [3]; SK-MEL-2, 4 °C): 2.7 ± 0.1^a µL/min/mg
- Vmax (sesamol uptake) (SK-MEL-2 cells [3]; SK-MEL-2, 4 °C): 0.3 ± 0.1^b nmol/min/mg
- Pd (passive diffusion of sesamol) (SK-MEL-2 cells [3]; SK-MEL-2, 37 °C): 2.3 ± 0.2 µL/min/mg protein
- Vmax (carrier-mediated transport of sesamol) (SK-MEL-2 cells [3]; SK-MEL-2, 37 °C): 4.2 ± 0.1 nmol/min/mg protein
- carrier-mediated transport as share of total uptake clearance (SK-MEL-2 cells [3]; SK-MEL-2, 37 °C): 89%
- Pd (sesamol passive diffusion) (SK-MEL-2 cells [3]; SK-MEL-2, 37 °C, sesamol alone): 2.3 ± 0.2^b µL/min/mg
- Vmax (sesamol uptake) (SK-MEL-2 cells [3]; SK-MEL-2, 37 °C, sesamol alone): 4.2 ± 0.1^a nmol/min/mg
- Km (SK-MEL-2 cells [3]; SK-MEL-2, 4 °C): 26.8 ± 9.8 µM
- Km (SK-MEL-2 cells [3]; SK-MEL-2, 37 °C, sesamol alone): 225 ± 19.3 µM
- Pd (sesamol passive diffusion) (Vero cells [4]; 4 °C): 2.4 ± 0.3^a µL/min/mg
- Vmax (sesamol uptake) (Vero cells [4]; 4 °C): 0.4 ± 0.1^b nmol/min/mg
- Pd (passive diffusion of sesamol) (Vero cells [4]; 37 °C): 2.1 ± 0.1 µL/min/mg protein
- Vmax (carrier-mediated transport of sesamol) (Vero cells [4]; 37 °C): 0.9 ± 0.0 nmol/min/mg protein
- carrier-mediated transport as share of total uptake clearance (Vero cells [4]; 37 °C): 72%
- Pd (sesamol passive diffusion) (Vero cells [4]; 37 °C, sesamol alone): 2.1 ± 0.1^a µL/min/mg
- Vmax (sesamol uptake) (Vero cells [4]; 37 °C, sesamol alone): 0.9 ± 0.0^a nmol/min/mg
- Km (Vero cells [4]; read-out: Km (sesamol uptake), 4 °C, 1 min): 66.1 ± 20 µM
- Km (Vero cells [4]; read-out: Km (sesamol uptake), 37 °C, sesamol alone, 1 min): 160 ± 18.4 µM
- Percent Inhibition of L-Dopa Distribution Volume (LAT1 [5]; [13]): 44%
- L-Dopa Distribution Volume in presence of the compound (LAT1 [5]; [14]): 207.6 ± 31.5 µL/mg Protein
- Percent Inhibition of L-Dopa Distribution Volume (LAT1 [6]; [13]): 33%
- L-Dopa Distribution Volume in presence of the compound (LAT1 [6]; [14]): 103.9 ± 9.2 µL/mg Protein
- Sesamol Distribution Volume, control (no competitor) (LAT1 [7]): 0% (23.2 ± 2.1)^a µL/mg Protein
- Sesamol Distribution Volume, control (no competitor) (LAT1 [8]): 0% (17.9 ± 1.7)^a µL/mg Protein
- Selective Index (SK-MEL-2 cells [9]): 3.4
- IC50 (SK-MEL-2 cells [9]; SK-MEL-2, 24 h exposure, neutral red, read-out: IC50 (cell viability)): 2 ± 0.1 mM
- IC50 (Vero cells [10]): 6.7 ± 0.2 mM
- logP [11]: 1.29
